Experimental data published in patent US11447740B2, “Lactic acid bacterium and use thereof” (Sone Farm Co., Ltd., priority 2017, dated 2022).

Biological target: T1, hyaluronidase (Bos taurus, UniProt Q2YDK3)
T1 sequence (Q2YDK3 36-553): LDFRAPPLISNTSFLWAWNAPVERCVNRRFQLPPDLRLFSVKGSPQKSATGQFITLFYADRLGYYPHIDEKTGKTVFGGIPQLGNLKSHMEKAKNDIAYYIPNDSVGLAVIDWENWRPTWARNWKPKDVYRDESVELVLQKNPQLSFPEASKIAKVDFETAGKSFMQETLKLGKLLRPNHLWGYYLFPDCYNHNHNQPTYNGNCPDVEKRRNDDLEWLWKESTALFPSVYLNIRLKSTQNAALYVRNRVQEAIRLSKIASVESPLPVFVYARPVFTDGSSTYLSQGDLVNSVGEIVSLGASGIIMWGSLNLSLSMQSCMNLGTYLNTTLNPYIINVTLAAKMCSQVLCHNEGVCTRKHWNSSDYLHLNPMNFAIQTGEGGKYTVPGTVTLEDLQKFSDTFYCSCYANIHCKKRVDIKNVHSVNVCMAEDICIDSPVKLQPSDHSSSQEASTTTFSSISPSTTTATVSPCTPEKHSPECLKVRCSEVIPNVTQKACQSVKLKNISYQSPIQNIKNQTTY
Experiment: Hyaluronidase activity inhibition
Assay type: biochemical
Conditions: pH 4.0, 37° C.
Experimental: 5 μL of a hyaluronidase enzyme solution (MP Biomedicals, 4 mg/mL, 100 mM sodium acetate buffer (pH 4.0)) was added to 10 μL of an aqueous solution containing polysaccharides at an optional concentration, which was prepared from the polysaccharide sample containing the neutral polysaccharide fractions and the acidic polysaccharide fractions, the neutral polysaccharide fractions, and the acidic polysaccharide fractions, which were exopolysaccharides produced by the strain IJH-SONE68 and obtained in Example 4. The resultant mixture was incubated at 37° C. for 20 minutes. Thereafter, to the mixture, 10 μL of an enzyme-activating solution (0.5 mg/ml Compound 48/80 (manufactured by MP Biomedicals)), 3.75 mg CaCl2.2H2O, and 100 mM sodium acetate buffer (pH 4.0)) were added, and incubated again at 37° C. for 20 minutes. Subsequently, to the resultant mixture, 25 μL of a sodium hyaluronate solution (Wako Pure Chemical Industries, 0.8 mg/mL, 100 mM sodium acetate buffer (pH 4.0)) was added, and further reacted at 37° C. for 40 minutes. After the reaction, the reaction was terminated by adding 10 μL of 0.4 M NaOH aqueous solution. […] 40 μL of the reaction solution was mixed with 200 μL of p-DMAB solution (described below), the mixture was reacted at 37° C. for 20 minutes, and the absorbance at 585 nm was then measured. […]

Structure (SMILES): CC1(C)[C@@H](O[C@H]2O[C@H](C(=O)[O-])[C@@H](O)[C@H](O)[C@H]2O[C@@H]2O[C@H](C(=O)[O-])[C@@H](O)[C@H](O)[C@H]2O)CC[C@]2(C)[C@H]3C(=O)C=C4[C@@H]5C[C@@](C)(C(=O)O)CC[C@]5(C)CC[C@@]4(C)[C@]3(C)CC[C@@H]12.[K+].[K+] [Dipotassium glycyrrhizinate]
- Hyaluronidase activity inhibition IC50: 530 µg/mL
